US11596623B2, “Methods for treating virus infection or proliferation” (HOWARD UNIVERSITY, priority 2018, dated 2023)

Assays:
RACK1A protein = experiment: RACK1 protein expression under salt stress, western blot; format: in vivo; settings: Arabidopsis lysates
From the text: The abundant leaf protein Rubisco large subunit (RbcL) was used as a loading control for the blot. The 37 kD RACK1 band was absent from the genetic knockout of RACK1 plants (double mutant-rack1ab lane).
The reported positive expression of RACK1A protein under salt stress condition in Arabidopsis has led us to examine the RACK1A expression in the presence and absence of the inhibitor compounds during salt stresses. We determined that the RACK1A protein expression was specifically modulated by the inhibitor compounds when the lysates with salt or without salt in the presence and absence of the small compounds were probed with an antibody raised by using the full length RACK1A protein as antigen (Agrisera, Vännäs, Sweden, FIG. 2C). […] However, whether the effect of SD29-12 is Arabidopsis salt stress specific condition needs further experimental evidence. As the antibody cross-reacts with all three RACK1 isoforms in Arabidopsis, we used the double knockout (rack1ab) as a negative control on the blot (triple mutant is lethal at the early seedling stage). The large subunit of the abundant leaf protein rubisco (RbcL) was used as loading control for this blot. As the results support the in-silico based prediction, we set out to investigate the effect of the compounds on the mammalian RACK1 based virus proliferation.

HSV-1 = HSV-1 viral protein western blot in HEp-2 cells; format: cell-based; settings: pre-treated 24 hours at 100 μM; 24 h after infection
From the text: Panel A of FIG. 3 depicts time and concentration dependent virus protein expression to deduce an optimum drug treatment regimen. […] Tubulin expression was used as the loading control for the blots.
HEp-2 cells (ATCC) were used for the infection of HSV-1. The cells were maintained in Dulbecco's Modified Eagle's medium (DMEM) supplemented with 10% fetal calf serum (FCS) and 1% penicillin-streptomycin (PS). Wild-type HSV-1 17 was obtained from R. D. Everett and used previously
Proteins were separated by SDS-PAGE (25 μg loaded in each lane), transferred to nitrocellulose membranes (Amersham Inc., Piscataway, N.J., USA), and blocked with 5% nonfat milk for 60 min at room temperature. Membranes were incubated overnight at 4° C. with primary antibody, followed by incubation with a horseradish peroxidase-coupled secondary antibody and detection with enhanced chemiluminescence (Pierce, Rockford, Ill., USA), according to standard methods. Membranes were stripped with stripping buffer (100 mM 2-mercaptoethanol, 2% SDS, 62.5 mM Tris-HCl, pH 6.8), washed with PBS-0.1% Tween-20, and used to detect additional proteins. For Arabidopsis lysates one-week old seedlings were treated with 10 uM of ABA in the presence/absence of the inhibitor compounds for 12 hours in a growth chamber (overnight) at 22° C. mostly in the dark. […]

## Nn1c(S)nnc1-c1ccc(F)cc1 [SD-29]
RACK1A protein
  RACK1 protein expression under salt stress: inhibited RACK1 protein expression
HSV-1
  HSV-1 protein production (ICP0, ICP8, gD): repressed HSV-1 protein production
